Data reported in PMC2747306 (Structure (London, England : 1993), 2009).

Key:
[1] = target: FimX^full-length (Pseudomonas aeruginosa, UniProt Q9HUK6); assay: isothermal titration calorimetry; type: binding
[2] = target: FimX^EAL (Pseudomonas aeruginosa, UniProt Q9HUK6); assay: isothermal titration calorimetry; type: binding
[3] = target: the molecule itself; assay: AUC

## Nc1nc2c(ncn2[C@@H]2O[C@@H]3CO[P@](=O)(O)O[C@H]4[C@@H](O)[C@H](n5cnc6c(=O)[nH]c(N)nc65)O[C@@H]4CO[P@](=O)(O)O[C@H]3[C@H]2O)c(=O)[nH]1 [c-di-GMP]
[1]
  Kd: 125 nM
[2]
  Kd: 104 nM

B1: FimX^ΔEAL (residues 1-431: N-terminal response receiver, PAS and GGDEF domains) (domain or fragment)
chain: MAIEKKTIRLLILEDSQNEAERLVSLFRNAGHATRVHRLTSPEDLAETLQQSWDLLIAAPTSECLEPGEALATLRRQSRDIPFIQLVADNSSDAITDALMLGAQDALPQGEDERLVLVANRELAGLAERRARRAAELALREAEKRCQLLLDSSVDAITYVHDGMHIYANRSYMALFGYEDAEELEGLPVIDLIASCDQGAFKDFLKGYQNDQRQTELVCTGVKLDGQEFKARISLSAATYDGEPCIQVVIRGEVDNAELEEKLREVSSQDPVTGLYNRSHFLDLMDAAVQQAVTARKPSTLAYIHLNGYPSLQADHGLSGIDLLLGQLAGLMREQFGEEADLARFGDSIFAALFKGKTPEQAQAALQRLLKKVENHLFELNGRSAQATLSIGVAGLDEKTAKAQDVMNRAHRCADDAARKGGSQIKQYNPA
[3]
  stoichiometry N: 2
